According to US8198273B2, “Compounds and methods for kinase modulation, and indications therefor” (Plexxikon Inc., priority 2009, dated 2012):

Assays:
CYP2C9 = CYP2C9 (Homo sapiens, UniProt P11712); test: CYP2C9 inhibition (fluorescent substrate); assay type: in vitro ADME; conditions: CYP2C9, MFC substrate; read-out: Cyp IC50 2C9
Method: CYP (Cytochrome P450) enzymes are the major drug metabolizing enzymes present in the liver. The inhibition of CYP enzyme activity (IC50) for each of CYP1A2, CYP2C19, CYP2C9, CYP2D6, CYP3A4(BFC) and CYP3A4(BQ) is determined for compounds, where inhibition of metabolism of a known substrate leads to a decrease in the fluorescence of the metabolized product. The fluorescence of the product is monitored as a function of compound concentration.
Compounds are dissolved in dimethyl sulfoxide to a concentration of 100 mM. These are diluted 1 μL into 82 μL of acetonitrile. […] These are then serially diluted 1:1 (160 μL to 160 μL co-factor mix) for a total of 10 points. A 10 μL aliquot of this final mixture is dispensed into 384 well assay plates and incubated for 10 minutes at 37° C. […] Assay plates are incubated at 37° C. […] The signal versus compound concentration is used to determine the IC50. The enzymes and substrates for this assay are obtained from BD Biosciences.

[1] = tested on: SKMEL2 melanoma cells (Ras mutation); test: SKMEL2 cell growth inhibition (ATPlite); assay type: cell-based; conditions: Homo sapiens, SK-MEL-2, 72 h; SKMEL2, 3 days incubation
In short: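 SKMEL2 cells seeded at 2,000 per well overnight, then exposed to an 8-point 1:3 compound titration (top 10 μM final) for 3 days at 37 °C. ATPlite luminescence used as a measure of cell number to derive IC50.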

CYP3A4(BFC) = CYP3A4(BFC) (Homo sapiens, UniProt P08684); test: CYP3A4(BFC) inhibition (fluorescent substrate); assay type: in vitro ADME; conditions: read-out: Cyp IC50 3A4(BFC)
In short: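 Compound, from a 100 mM DMSO stock and diluted 1:1 over 10 points in co-factor mix, was incubated at 37° C with enzyme and a known substrate. Decrease in fluorescent product against concentration gave the IC50.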

CYP3A4(BFC), sequence (P08684 whole entry): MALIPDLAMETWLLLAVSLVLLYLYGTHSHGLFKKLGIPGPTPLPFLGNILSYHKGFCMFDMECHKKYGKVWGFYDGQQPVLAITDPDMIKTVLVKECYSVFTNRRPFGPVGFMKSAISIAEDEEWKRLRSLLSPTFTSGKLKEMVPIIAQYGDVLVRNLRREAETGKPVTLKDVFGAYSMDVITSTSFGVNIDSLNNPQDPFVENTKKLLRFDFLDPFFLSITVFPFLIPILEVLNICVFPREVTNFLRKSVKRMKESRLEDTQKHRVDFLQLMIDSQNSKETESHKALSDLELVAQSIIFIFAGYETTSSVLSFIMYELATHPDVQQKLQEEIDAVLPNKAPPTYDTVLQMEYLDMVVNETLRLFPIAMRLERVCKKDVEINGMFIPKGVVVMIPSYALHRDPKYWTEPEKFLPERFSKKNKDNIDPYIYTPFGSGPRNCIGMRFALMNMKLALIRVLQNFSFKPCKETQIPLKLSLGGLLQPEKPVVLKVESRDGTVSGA
CYP2C9, sequence (P11712 whole entry): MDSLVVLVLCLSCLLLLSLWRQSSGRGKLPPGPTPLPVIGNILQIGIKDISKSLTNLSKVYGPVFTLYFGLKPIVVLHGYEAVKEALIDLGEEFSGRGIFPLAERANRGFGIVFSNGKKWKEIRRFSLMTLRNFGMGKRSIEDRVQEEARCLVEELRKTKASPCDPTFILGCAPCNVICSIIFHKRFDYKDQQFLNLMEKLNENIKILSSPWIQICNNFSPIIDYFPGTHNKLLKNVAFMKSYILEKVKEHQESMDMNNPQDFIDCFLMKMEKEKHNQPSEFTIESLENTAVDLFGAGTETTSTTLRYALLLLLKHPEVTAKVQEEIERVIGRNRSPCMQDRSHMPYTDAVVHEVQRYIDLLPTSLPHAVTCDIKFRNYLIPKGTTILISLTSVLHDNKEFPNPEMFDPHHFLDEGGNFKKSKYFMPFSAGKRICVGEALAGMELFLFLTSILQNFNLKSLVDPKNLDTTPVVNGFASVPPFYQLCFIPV

CCCS(=O)(=O)Nc1ccc(F)c(C(=O)c2c[nH]c3ncc(-c4cnc(C)nc4)cc23)c1F [P-2211, Propane-1-sulfonic acid {2,4-difluoro-3-[5-(2-methyl-pyrimidin-5-yl)-1H-pyrrolo[2,3-b]pyridine-3-carbonyl]-phenyl}-amide]
IC50 (CYP2C9): > 10 µM | IC50 [1]: > 10 µM | IC50 (CYP3A4(BFC)): > 10 µM

Cc1cnc2[nH]cc(C(=O)c3c(F)ccc(NS(=O)(=O)c4ccccc4F)c3F)c2c1 [P-2014, N-[2,4-Difluoro-3-(5-methyl-1H-pyrrolo[2,3-b]pyridine-3-carbonyl)-phenyl]-2-fluoro-benzenesulfonamide]
IC50 (CYP2C9): > 10 µM | IC50 [1]: > 10 µM | IC50 (CYP3A4(BFC)): > 10 µM

CCCS(=O)(=O)Nc1ccc(F)c(C(=O)c2c[nH]c3ncc(-c4ccc(NS(C)(=O)=O)cc4)cc23)c1F [P-2165, Propane-1-sulfonic acid {2,4-difluoro-3-[5-(4-methanesulfonylamino-phenyl)-1H-pyrrolo[2,3-b]pyridine-3-carbonyl]-phenyl}-amide]
IC50 (CYP2C9): 5 to 10 µM | IC50 [1]: < 10 µM | IC50 (CYP3A4(BFC)): > 10 µM

N#Cc1ccnc2[nH]cc(C(=O)c3c(F)ccc(NS(=O)(=O)c4cc(F)ccc4F)c3F)c12 [P-2036, N-[3-(4-Cyano-1H-pyrrolo[2,3-b]pyridine-3-carbonyl)-2,4-difluoro-phenyl]-2,5-difluoro-benzenesulfonamide]
IC50 (CYP2C9): > 10 µM | IC50 [1]: > 10 µM | IC50 (CYP3A4(BFC)): > 10 µM

CCCS(=O)(=O)Nc1ccc(F)c(C(=O)c2c[nH]c3ncc(-c4ccc(S(=O)(=O)N5CCOCC5)cc4)cc23)c1F [P-2166, Propane-1-sulfonic acid (2,4-difluoro-3-{5-[4-(morpholine-4-sulfonyl)-phenyl]-1H-pyrrolo[2,3-b]pyridine-3-carbonyl}-phenyl)-amide]
IC50 (CYP2C9): > 10 µM | IC50 [1]: < 5 µM | IC50 (CYP3A4(BFC)): > 10 µM

CCCS(=O)(=O)Nc1ccc(F)c(C(=O)c2c[nH]c3ncc(-c4ccc(S(=O)(=O)N(C)C)cc4)cc23)c1F [P-2185, 4-{3-[2,6-Difluoro-3-(propane-1-sulfonylamino)-benzoyl]-1H-pyrrolo[2,3-b]pyridin-5-yl}-N,N-dimethyl-benzenesulfonamide]
IC50 (CYP2C9): < 5 µM | IC50 [1]: > 10 µM | IC50 (CYP3A4(BFC)): > 10 µM

COc1ccnc2[nH]cc(C(=O)c3c(F)ccc(NS(=O)(=O)c4cccnc4)c3F)c12 [P-2073, Pyridine-3-sulfonic acid [2,4-difluoro-3-(4-methoxy-1H-pyrrolo[2,3-b]pyridine-3-carbonyl)-phenyl]-amide]
IC50 (CYP2C9): > 10 µM | IC50 [1]: > 10 µM | IC50 (CYP3A4(BFC)): 5 to 10 µM

CCCS(=O)(=O)Nc1ccc(F)c(C(=O)c2c[nH]c3ncc(C#CCOC)cc23)c1F [P-2239, Propane-1-sulfonic acid {2,4-difluoro-3-[5-(3-methoxy-prop-1-ynyl)-1H-pyrrolo[2,3-b]pyridine-3-carbonyl]-phenyl}-amide]
IC50 (CYP2C9): 5 to 10 µM | IC50 [1]: < 20 µM | IC50 (CYP3A4(BFC)): 5 to 10 µM

N#Cc1ccnc2[nH]cc(C(=O)c3c(F)ccc(NS(=O)(=O)c4cccnc4)c3F)c12 [P-2077, Pyridine-3-sulfonic acid [3-(4-cyano-1H-pyrrolo[2,3-b]pyridine-3-carbonyl)-2,4-difluoro-phenyl]-amide]
IC50 (CYP2C9): 5 to 10 µM | IC50 [1]: > 10 µM | IC50 (CYP3A4(BFC)): 5 to 10 µM

N#Cc1ccnc2[nH]cc(C(=O)c3c(F)ccc(NS(=O)(=O)c4ccccc4F)c3F)c12 [P-2020, N-[3-(4-Cyano-1H-pyrrolo[2,3-b]pyridine-3-carbonyl)-2,4-difluoro-phenyl]-2-fluoro-benzenesulfonamide]
IC50 (CYP2C9): > 10 µM | IC50 [1]: > 10 µM | IC50 (CYP3A4(BFC)): > 10 µM

N#Cc1cnc2[nH]cc(C(=O)c3cccc(NS(=O)(=O)c4ccccc4F)c3F)c2c1 [P-2051, N-[3-(5-Cyano-1H-pyrrolo[2,3-b]pyridine-3-carbonyl)-2-fluoro-phenyl]-2-fluoro-benzenesulfonamide]
IC50 (CYP2C9): 5 to 10 µM | IC50 [1]: > 10 µM | IC50 (CYP3A4(BFC)): > 10 µM

O=C(c1c(F)ccc(NS(=O)(=O)c2c(F)cccc2F)c1F)c1c[nH]c2nccc(Cl)c12 [P-2033, N-[3-(4-Chloro-1H-pyrrolo[2,3-b]pyridine-3-carbonyl)-2,4-difluoro-phenyl]-2,6-difluoro-benzenesulfonamide]
IC50 (CYP2C9): > 10 µM | IC50 [1]: > 10 µM | IC50 (CYP3A4(BFC)): > 10 µM

O=C(c1c(F)ccc(NS(=O)(=O)c2cc(F)ccc2F)c1F)c1c[nH]c2nccc(Cl)c12 [P-2018, N-[3-(4-Chloro-1H-pyrrolo[2,3-b]pyridine-3-carbonyl)-2,4-difluoro-phenyl]-2,5-difluoro-benzenesulfonamide]
IC50 (CYP2C9): > 10 µM | IC50 [1]: > 10 µM | IC50 (CYP3A4(BFC)): 5 to 10 µM

CCCS(=O)(=O)Nc1ccc(F)c(C(=O)c2c[nH]c3ncc(-c4cnc(N5CCCC5)nc4)cc23)c1F [P-2219, Propane-1-sulfonic acid {2,4-difluoro-3-[5-(2-pyrrolidin-1-yl-pyrimidin-5-yl)-1H-pyrrolo[2,3-b]pyridine-3-carbonyl]-phenyl}-amide]
IC50 (CYP2C9): > 10 µM | IC50 [1]: > 10 µM

CCCS(=O)(=O)Nc1ccc(F)c(C(=O)c2c[nH]c3ncc(-c4ccc(Cl)nc4)cc23)c1F [P-2154, Propane-1-sulfonic acid {3-[5-(6-chloro-pyridin-3-yl)-1H-pyrrolo[2,3-b]pyridine-3-carbonyl]-2,4-difluoro-phenyl}-amide]
IC50 (CYP2C9): 5 to 10 µM | IC50 [1]: > 10 µM | IC50 (CYP3A4(BFC)): > 10 µM

COc1ccnc2[nH]cc(C(=O)c3c(F)ccc(NS(=O)(=O)c4cc(F)ccc4F)c3F)c12 [P-2022, N-[2,4-Difluoro-3-(4-methoxy-1H-pyrrolo[2,3-b]pyridine-3-carbonyl)-phenyl]-2,5-difluoro-benzenesulfonamide]
IC50 (CYP2C9): 5 to 10 µM | IC50 [1]: > 10 µM

COc1ccnc2[nH]cc(C(=O)c3c(F)ccc(NS(=O)(=O)c4c(F)cccc4F)c3F)c12 [P-2031, N-[2,4-Difluoro-3-(4-methoxy-1H-pyrrolo[2,3-b]pyridine-3-carbonyl)-phenyl]-2,6-difluoro-benzenesulfonamide]
IC50 (CYP2C9): > 10 µM | IC50 [1]: > 10 µM | IC50 (CYP3A4(BFC)): > 10 µM

N#Cc1cnc2[nH]cc(C(=O)c3cccc(NS(=O)(=O)c4ccccc4)c3F)c2c1 [P-2056, N-[3-(5-Cyano-1H-pyrrolo[2,3-b]pyridine-3-carbonyl)-2-fluoro-phenyl]-benzenesulfonamide]
IC50 [1]: > 10 µM | IC50 (CYP3A4(BFC)): > 10 µM

N#Cc1cnc2[nH]cc(C(=O)c3cccc(NS(=O)(=O)c4c(F)cccc4F)c3F)c2c1 [P-2054, N-[3-(5-Cyano-1H-pyrrolo[2,3-b]pyridine-3-carbonyl)-2-fluoro-phenyl]-2,6-difluoro-benzenesulfonamide]
IC50 (CYP2C9): > 10 µM | IC50 (CYP3A4(BFC)): > 10 µM

CCCS(=O)(=O)Nc1ccc(F)c(C(=O)c2c[nH]c3ncc(-c4ccc(C#CCN(CC)CC)nc4)cc23)c1F [P-2222, Propane-1-sulfonic acid (3-{5-[6-(3-diethylamino-prop-1-ynyl)-pyridin-3-yl]-1H-pyrrolo[2,3-b]pyridine-3-carbonyl}-2,4-difluoro-phenyl)-amide]
IC50 (CYP2C9): 5 to 10 µM | IC50 (CYP3A4(BFC)): > 10 µM

CCCS(=O)(=O)Nc1ccc(F)c(C(=O)c2c[nH]c3ncc(-c4ccnc(F)c4)cc23)c1F [P-2192, Propane-1-sulfonic acid {2,4-difluoro-3-[5-(2-fluoro-pyridin-4-yl)-1H-pyrrolo[2,3-b]pyridine-3-carbonyl]-phenyl}-amide]
IC50 (CYP2C9): 5 to 10 µM | IC50 (CYP3A4(BFC)): > 10 µM

O=C(c1c(F)ccc(NS(=O)(=O)c2c(F)cccc2F)c1F)c1c[nH]c2ncc(Cl)cc12 [P-2003, N-[3-(5-Chloro-1H-pyrrolo[2,3-b]pyridine-3-carbonyl)-2,4-difluoro-phenyl]-2,6-difluoro-benzenesulfonamide]
IC50 (CYP2C9): > 10 µM | IC50 (CYP3A4(BFC)): > 10 µM

CCCS(=O)(=O)Nc1ccc(F)c(C(=O)c2c[nH]c3ncc(-c4ccc(S(=O)(=O)NC5CC5)cc4)cc23)c1F [P-2168, N-Cyclopropyl-4-{3-[2,6-difluoro-3-(propane-1-sulfonylamino)-benzoyl]-1H-pyrrolo[2,3-b]pyridin-5-yl}-benzenesulfonamide]
IC50 (CYP2C9): < 5 µM | IC50 [1]: < 5 µM

Cc1cnc2[nH]cc(C(=O)c3c(F)ccc(NS(=O)(=O)c4c(F)cccc4F)c3F)c2c1 [P-2024, N-[2,4-Difluoro-3-(5-methyl-1H-pyrrolo[2,3-b]pyridine-3-carbonyl)-phenyl]-2,6-difluoro-benzenesulfonamide]
IC50 (CYP2C9): > 10 µM | IC50 (CYP3A4(BFC)): > 10 µM

CCCS(=O)(=O)Nc1ccc(F)c(C(=O)c2c[nH]c3ncc(-c4ccc(C(=O)NC)nc4)cc23)c1F [P-2180, 5-{3-[2,6-Difluoro-3-(propane-1-sulfonylamino)-benzoyl]-1H-pyrrolo[2,3-b]pyridin-5-yl}-pyridine-2-carboxylic acid methylamide]
IC50 (CYP2C9): < 5 µM | IC50 (CYP3A4(BFC)): > 10 µM

CCCS(=O)(=O)Nc1ccc(F)c(C(=O)c2c[nH]c3ncc(-c4ccc(OCCCN5CCOCC5)nc4)cc23)c1F [P-2236, Propane-1-sulfonic acid (2,4-difluoro-3-{5-[6-(3-morpholin-4-yl-propoxy)-pyridin-3-yl]-1H-pyrrolo[2,3-b]pyridine-3-carbonyl}-phenyl)-amide]
IC50 (CYP2C9): < 5 µM | IC50 (CYP3A4(BFC)): < 5 µM
